Laboratory results published in patent publication US20160331783A1, “BISAMIDE COMPOUNDS AS ALLOSTERIC EFFECTORS FOR REDUCING THE OXYGEN-BINDING AFFINITY OF HEMOGLOBIN” (THE GENERAL HOSPITAL CORPORATION, priority 2014, published 2016).
Where “and” joins values, the source holds several entries; their conditions need not be identical. Equal entries are not always repeated.

Assays:
[1] = target: T1, purified human hemoglobin (Homo sapiens, UniProt P68871); test: Oxygen dissociation curve (ODC) of purified hemoglobin, Hemox analyzer, P50; format: biochemical
T1 construct: For experiments with purified hemoglobin, hemoglobin (20 μM as tetramer) was dissolved in DPBS
Protocol: The ODC of hemoglobin was measured with a Hemox analyzer (TCS Scientific Corporation) at 37° C. For experiments with purified hemoglobin, hemoglobin (20 μM as tetramer) was dissolved in DPBS and antifoam (0.2 vol %, Catalog No. AFA-25, TCS Scientific Corporation) was added to prevent foaming of the sample. Compounds were prepared in DMSO stock solutions then added to hemoglobin. The final concentration of DMSO was adjusted to 5 vol %. For experiments with RBCs, blood was drawn from volunteers into EDTA tubes. The blood was centrifuged for 15 min at 3,000 rpm at 4° C. The supernatant was discarded, and RBCs were washed three times with DPBS, pH 7.4 by dilution to 50% hematocrit. The washed RBCs were then diluted with Hemox solution (mixture of N-[Tris(hydroxymethyl)methyl]-2-aminoethanesulfonic acid (TES, 30 mM), sodium chloride (135 mM), and potassium chloride (5 mM) in water (pH 7.4), TCS Scientific Corporation), and mixed with the test compound stock solutions. When known allosteric effectors NEM (400 μM), 5HMF (2 mM) or formamidine disulfide (400 μM) were mixed with RBCs (20 μM as hemoglobin tetramer) for 1 h at 37° C., P50 was reduced to 8 Torr, 9 Torr, and 9 Torr respectively, which correlated with previous reports (see Garel et al., European Journal of Biochemistry, 1982, 123, 513-519). Data was analyzed by two-tailed, unpaired Student's t test using Microsoft Excel 2007.
A saturating effect on P50 was first determined by adding an increasing concentration of 2,3-DPG and IHP. No increase of P50 of hemoglobin was observed after an addition of a 30-fold molar excess of 2,3-DPG or IHP to hemoglobin. Hemoglobin (20 μM as tetramer) was pre-incubated with either 2,3-DPG (600 μM) or IHP (600 μM) followed by addition of Compound 1 (0, 50, 100, 150 and 200 μM) to the hemoglobin.

[2] = test system: RBCs; test: Hemolysis of RBCs / blood on incubation with compound; format: cell-based, human; conditions: compound 20 μM in DPBS with 5% DMSO
[3] = target: deoxygenated hemoglobin (deoxyHb) (Homo sapiens, UniProt P68871); test: X-ray crystallography of deoxyHb complexed with Compound 1; format: binding; conditions: PDB 4L7Y, 1.80 Å
Protocol: To obtain unliganded hemoglobin structure in complex with 1, freshly prepared solution of 1 in DMSO was incubated with deoxygenated hemoglobin (deoxyHb) (30-50 mg/mL) for 1 h at a hemoglobin tetramer-1 molar ratio of 1:5, followed by crystallization with a low-salt precipitant (0.2 M sodium acetate trihydrate, 0.1 M sodium cacodylate trihydrate, pH 6.6 and 30% PEG 8000). The crystals were washed in a cryo-protectant solution containing mother liquor and glycerol (3:1 ratio) prior to data collection. The complex crystallized in the orthorhombic space group P21212 with typical cell dimensions a=96 Å, b=98 Å and c=65 Å with one functional tetramer per asymmetric unit.
Diffraction data of all crystals were collected at 100 K with a Rigaku IV ++ image plate detector using a CuKα X-rays (k=1.54 Å) from a MicroMax-007 source fitted with Varimax Confocal optics (Rigaku, The Woodlands, Tex.). The datasets were processed with the d*trek software (Rigaku) and the CCP4 suite of programs.
Initial phase for the deoxyHb-1 complex structure was obtained by a molecular replacement method with the program CNS, using human deoxyHb […] tetramer structure (PDB code 2DN2) as a search model. Subsequent structure refinements were performed with the CNS program. Model building and correction were carried out using the graphic program COOT. […]

- Increase of P50 of hemoglobin, dose dependence ([1]; FIG. 3, FIG. 6-7): concentration-dependent
- P50 of hemoglobin ([1]; hemoglobin 20 μM tetramer, compound 200 μM, DPBS pH 7.4, 5 vol % DMSO, 37° C., hemoglobin alone 17 Torr): 24 Torr and 24±0.4 Torr
- P50 of hemoglobin pre-saturated with 2,3-DPG plus Compound 1 ([1]; hemoglobin 20 μM, 2,3-DPG 600 μM, Compound 1 200 μM): 29±0.5 Torr
- Synergistic reduction of oxygen binding affinity in combination with 2,3-DPG ([1]; hemoglobin 20 μM, 2,3-DPG 600 μM, Compound 1 up to 200 μM): synergistic reduction
- Synergistic reduction of oxygen binding affinity in combination with IHP ([1]; hemoglobin 20 μM, IHP 600 μM, Compound 1 up to 200 μM): did not induce a synergistic reduction
- P50 with purified hemoglobin ([1]; hemoglobin 20 μM, tested compound 120 μM, purified hemoglobin alone 17 Torr): 24 Torr
Structure (SMILES): Cc1cc(C)cc(C(=O)N(C)[C@H](Cc2ccc(-c3ccccc3)cc2)C(=O)N[C@@H](Cc2c[nH]c3ccccc23)C(=O)O)c1 [Compound 1, (S)-2-((R)-3-([1,1′-biphenyl]-4-yl)-2-(N,3,5-trimethylbenzamido)propanamido)-3-(1H-indol-3-yl)propanoic acid]
- Hemolysis of RBCs [2]: hemolysis
- Binding site in deoxyHb crystal structure [3]: non-covalently binds at the β-cleft on the dyad axis
